Measurements as given in the supplement of paper PMC10307832.

Tests used:
Assay in all cases: relative viability (nuclei count vs DMSO), 5 days (fraction); higher = more cells survive
[1] = test system: NCI-H1734
Method in brief: (§1)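 After 5 days of treatment, lung cancer cells in 1536-well plates were fixed and stained in a single step (final 0.05% Triton X-100, 1% formaldehyde, 1 ug/ml Hoechst) and their nuclei counted on 4× images. Treatment had been applied by pin tool the day after seeding as one drug alone or as a fixed anchor-drug dose with five library-drug doses (not always all listed) in √10 steps. Relative viability is the nuclei count of treated wells divided by that of vehicle wells, and values are medians of duplicate plates.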

[2] = test system: PC-3 [JPC-3]
Method in brief: as §1

[3] = test system: NCI-H460
Method in brief: as §1

[4] = test system: HCC-366
Method in brief: as §1

[5] = test system: NCI-H1651
Method in brief: as §1

[6] = test system: LOU-NH91
Method in brief: as §1

[7] = test system: NCI-H2087
Method in brief: as §1

[8] = test system: NCI-H2228
Method in brief: as §1

[9] = test system: ChaGo-K-1
Method in brief: as §1

[10] = test system: NCI-H2170
Method in brief: as §1

[11] = test system: CAL-12T
Method in brief: as §1

[12] = test system: NCI-H1755
Method in brief: as §1

[13] = test system: UMC-11
Method in brief: as §1

[14] = test system: NCI-H1793
Method in brief: as §1

[15] = test system: NCI-H1944
Method in brief: as §1

[16] = test system: EPLC-272H
Method in brief: as §1

[17] = test system: RERF-LC-KJ
Method in brief: as §1

[18] = test system: NCI-H1395
Method in brief: as §1

[19] = test system: HCC-78
Method in brief: as §1

[20] = test system: LC-2-ad
Method in brief: as §1

[21] = test system: ABC-1
Method in brief: as §1

[22] = test system: LU99A
Method in brief: as §1

[23] = test system: NCI-H3122
Method in brief: as §1

[24] = test system: NCI-H2405
Method in brief: as §1

CC(C)Oc1cc(Nc2nc(N[C@@H](C)c3ccc(F)cn3)ncc2Cl)n[nH]1 [AZ23] + COc1cc2c(Oc3ccc(NC(=O)C4(C(=O)Nc5ccc(F)cc5)CC4)cc3F)ccnc2cc1OCCCN1CCOCC1 [Foretinib] (partner 0.25 µM)
relative viability ([1]; first compound 0.01 µM): 0.803 | relative viability ([1]; first compound 0.03162 µM): 0.872 | relative viability ([1]; first compound 0.3162 µM): 0.796 | relative viability ([2]; first compound 0.01 µM): 1.23 | relative viability ([2]; first compound 0.03162 µM): 1.14 | relative viability ([2]; first compound 0.3162 µM): 0.996 | relative viability ([3]; first compound 0.01 µM): 1.12 | relative viability ([3]; first compound 0.03162 µM): 1.11 | relative viability ([3]; first compound 0.3162 µM): 1.05 | relative viability ([4]; first compound 0.01 µM): 1.13 | relative viability ([4]; first compound 0.03162 µM): 0.995 | relative viability ([4]; first compound 0.3162 µM): 0.933 | relative viability ([5]; first compound 0.03162 µM): 0.828 | relative viability ([5]; first compound 0.3162 µM): 0.844 | relative viability ([6]; first compound 0.01 µM): 0.941 | relative viability ([6]; first compound 0.03162 µM): 0.975 | relative viability ([6]; first compound 0.3162 µM): 0.927 | relative viability ([7]; first compound 0.01 µM): 1.49 | relative viability ([7]; first compound 0.03162 µM): 1.09 | relative viability ([7]; first compound 0.3162 µM): 1.02 | relative viability ([8]; first compound 0.01 µM): 1.06 | relative viability ([8]; first compound 0.03162 µM): 1.26 | relative viability ([8]; first compound 0.3162 µM): 0.875 | relative viability ([9]; first compound 0.01 µM): 1.17 | relative viability ([9]; first compound 0.03162 µM): 0.906 | relative viability ([9]; first compound 0.3162 µM): 0.95 | relative viability ([10]; first compound 0.01 µM): 1.16 | relative viability ([10]; first compound 0.03162 µM): 0.98 | relative viability ([10]; first compound 0.3162 µM): 0.849 | relative viability ([11]; first compound 0.03162 µM): 1.14 | relative viability ([11]; first compound 0.3162 µM): 0.884 | relative viability ([12]; first compound 0.01 µM): 0.949 | relative viability ([12]; first compound 0.03162 µM): 0.94 | relative viability ([12]; first compound 0.3162 µM): 0.958 | relative viability ([13]; first compound 0.01 µM): 1.08 | relative viability ([13]; first compound 0.03162 µM): 1.15 | relative viability ([13]; first compound 0.3162 µM): 0.951 | relative viability ([14]; first compound 0.01 µM): 0.879 | relative viability ([14]; first compound 0.03162 µM): 0.859 | relative viability ([14]; first compound 0.3162 µM): 0.713 | relative viability ([15]; first compound 0.01 µM): 0.811 | relative viability ([15]; first compound 0.03162 µM): 0.954 | relative viability ([15]; first compound 0.3162 µM): 0.864 | relative viability ([16]; first compound 0.01 µM): 0.77 | relative viability ([16]; first compound 0.03162 µM): 0.74 | relative viability ([16]; first compound 0.3162 µM): 0.676 | relative viability ([17]; first compound 0.01 µM): 1.09 | relative viability ([17]; first compound 0.03162 µM): 0.877 | relative viability ([17]; first compound 0.3162 µM): 0.852 | relative viability ([18]; first compound 0.03162 µM): 1.02 | relative viability ([18]; first compound 0.3162 µM): 1 | relative viability ([19]; first compound 0.01 µM): 0.588 | relative viability ([19]; first compound 0.03162 µM): 0.52 | relative viability ([19]; first compound 0.3162 µM): 0.547 | relative viability ([20]; first compound 0.01 µM): 1.07 | relative viability ([20]; first compound 0.03162 µM): 0.993 | relative viability ([20]; first compound 0.3162 µM): 1.02 | relative viability ([21]; first compound 0.01 µM): 1.03 | relative viability ([21]; first compound 0.03162 µM): 1.04 | relative viability ([21]; first compound 0.3162 µM): 1.02 | relative viability ([22]; first compound 0.01 µM): 0.799 | relative viability ([22]; first compound 0.03162 µM): 0.846 | relative viability ([22]; first compound 0.3162 µM): 0.872 | relative viability ([23]; first compound 0.01 µM): 1.15 | relative viability ([23]; first compound 0.03162 µM): 0.918 | relative viability ([23]; first compound 0.3162 µM): 0.981 | relative viability ([24]; first compound 0.01 µM): 1.04 | relative viability ([24]; first compound 0.03162 µM): 1.05 | relative viability ([24]; first compound 0.3162 µM): 1.04
